Results from ChEMBL document CHEMBL4024706 (Eur J Med Chem, 2017).

Tests used:
[1] = biological target: Serine/threonine-protein kinase 35 (Homo sapiens) (UniProt Q8TDR2); assay: Inhibition of wild-type human partial length STK35 (G182 to A534 residues) expressed in bacterial expression system assessed as residual activity at 1 uM by Kinomescan method relative to control
[2] = biological target: Mitogen-activated protein kinase 9 (Homo sapiens) (UniProt P45984); assay: Inhibition of wild-type human full length JNK2 (M1 to Q382 residues) expressed in mammalian expression system assessed as residual activity at 1 uM by Kinomescan method relative to control
[3] = biological target: Serine/threonine-protein kinase ULK2 (Homo sapiens) (UniProt Q8IYT8); assay: Inhibition of wild-type human partial length ULK2 (M1 to S301 residues) expressed in mammalian expression system assessed as residual activity at 1 uM by Kinomescan method relative to control
[4] = biological target: Receptor-interacting serine/threonine-protein kinase 2 (Homo sapiens) (UniProt O43353); assay: Inhibition of wild-type human partial length RIPK2 (M1 to K310 residues) expressed in bacterial expression system assessed as residual activity at 1 uM by Kinomescan method relative to control
[5] = biological target: Death-associated protein kinase 3 (Homo sapiens) (UniProt O43293); assay: Inhibition of wild-type human partial length DAPK3 (M1 to A277 residues) expressed in bacterial expression system assessed as residual activity at 1 uM by Kinomescan method relative to control
[6] = biological target: Serine/threonine-protein kinase DCLK3 (Homo sapiens) (UniProt Q9C098); assay: Inhibition of wild-type human partial length DCAMKL3 (E140 to V628 residues) expressed in bacterial expression system assessed as residual activity at 1 uM by Kinomescan method relative to control
[7] = biological target: Casein kinase I isoform gamma-1 (Homo sapiens) (UniProt Q9HCP0); assay: Inhibition of wild-type human partial length CSNK1G1 (T15 to S353 residues) expressed in bacterial expression system assessed as residual activity at 1 uM by Kinomescan method relative to control
[8] = biological target: Serine/threonine-protein kinase 38 (Homo sapiens) (UniProt Q15208); assay: Inhibition of wild-type human partial length NDR1 (N33 to E449 residues) expressed in mammalian expression system assessed as residual activity at 1 uM by Kinomescan method relative to control
[9] = biological target: cAMP-dependent protein kinase catalytic subunit PRKX (Homo sapiens) (UniProt P51817); assay: Inhibition of wild-type human partial length PRKX (M1 to F358 residues) expressed in bacterial expression system assessed as residual activity at 1 uM by Kinomescan method relative to control
[10] = MRT (0 to t) in Sprague-Dawley rat at 10 mg/kg, po by LC-MS/MS method; type: ADME, organism-based; details: in vivo
[11] = biological target: Serine/threonine-protein kinase 25 (Homo sapiens) (UniProt O00506); assay: Inhibition of wild-type human partial length YSK1 (V14 to H295 residues) expressed in bacterial expression system assessed as residual activity at 1 uM by Kinomescan method relative to control
[12] = tested on: Tyrosine-protein kinase ABL1 (Homo sapiens), P00519 [F317I]; assay: Inhibition of human phosphorylated ABL1 F317I mutant (S229 to K512 residues) expressed in mammalian expression system assessed as residual activity at 1 uM by Kinomescan method relative to control
[13] = biological target: Serine/threonine-protein kinase D1 (Homo sapiens) (UniProt Q15139); assay: Inhibition of wild-type human partial length PRKD1 (G551 to E870 residues) expressed in bacterial expression system assessed as residual activity at 1 uM by Kinomescan method relative to control
[14] = biological target: Tyrosine-protein kinase Lyn (Homo sapiens) (UniProt P07948); assay: Inhibition of wild-type human partial length LYN (C219 to Q511 residues) expressed in bacterial expression system assessed as residual activity at 1 uM by Kinomescan method relative to control
[15] = biological target: Ephrin type-A receptor 8 (Homo sapiens) (UniProt P29322); assay: Inhibition of wild-type human partial length EPHA8 (Q608 to C920 residues) expressed in bacterial expression system assessed as residual activity at 1 uM by Kinomescan method relative to control
[16] = biological target: Ephrin type-B receptor 3 (Homo sapiens) (UniProt P54753); assay: Inhibition of wild-type human partial length EPHB3 (Q599 to T928 residues) expressed in bacterial expression system assessed as residual activity at 1 uM by Kinomescan method relative to control
[17] = biological target: Serine/threonine-protein kinase 36 (Homo sapiens) (UniProt Q9NRP7); assay: Inhibition of wild-type human partial length STK36 (M1 to T271 residues) expressed in bacterial expression system assessed as residual activity at 1 uM by Kinomescan method relative to control
[18] = biological target: Cyclin-dependent kinase 4/cyclin D1 (Homo sapiens) (UniProt P11802+P24385); assay: Inhibition of wild-type human full length CDK4/cyclinD1 (M1 to E303 residues) expressed in mammalian expression system assessed as residual activity at 1 uM by Kinomescan method relative to control
[19] = biological target: Myosin light chain kinase 2, skeletal/cardiac muscle (Homo sapiens) (UniProt Q9H1R3); assay: Inhibition of wild-type human partial length MYLK2 (D258 to K570 residues) expressed in bacterial expression system assessed as residual activity at 1 uM by Kinomescan method relative to control
[20] = biological target: Serine/threonine-protein kinase 16 (Homo sapiens) (UniProt O75716); assay: Inhibition of wild-type human partial length STK16 (G11 to I305 residues) expressed in bacterial expression system assessed as residual activity at 1 uM by Kinomescan method relative to control
[21] = biological target: Activin receptor type-1 (Homo sapiens) (UniProt Q04771); assay: Inhibition of wild-type human ACVR1 (C188 to C509 residues) expressed in bacterial expression system assessed as residual activity at 1 uM by Kinomescan method relative to control
[22] = biological target: Discoidin domain-containing receptor 2 (Homo sapiens) (UniProt Q16832); assay: Inhibition of wild-type human partial length DDR2 (V555 to E855 residues) expressed in mammalian expression system assessed as residual activity at 1 uM by Kinomescan method relative to control
[23] = biological target: Mitogen-activated protein kinase 11 (Homo sapiens) (UniProt Q15759); assay: Inhibition of wild-type human full length p38-beta (M1 to Q364 residues) expressed in bacterial expression system assessed as residual activity at 1 uM by Kinomescan method relative to control
[24] = biological target: Mitogen-activated protein kinase kinase kinase kinase 2 (Homo sapiens) (UniProt Q12851); assay: Inhibition of wild-type human partial length MAP4K2 (M1 to G318 residues) expressed in mammalian expression system assessed as residual activity at 1 uM by Kinomescan method relative to control
[25] = biological target: Ephrin type-B receptor 2 (Homo sapiens) (UniProt P29323); assay: Inhibition of wild-type human partial length EPHB2 (I597 to L902 residues) expressed in bacterial expression system assessed as residual activity at 1 uM by Kinomescan method relative to control
Sequence of Ephrin type-B receptor 2 (Homo sapiens) (P29323 whole entry, the tested form may be a part): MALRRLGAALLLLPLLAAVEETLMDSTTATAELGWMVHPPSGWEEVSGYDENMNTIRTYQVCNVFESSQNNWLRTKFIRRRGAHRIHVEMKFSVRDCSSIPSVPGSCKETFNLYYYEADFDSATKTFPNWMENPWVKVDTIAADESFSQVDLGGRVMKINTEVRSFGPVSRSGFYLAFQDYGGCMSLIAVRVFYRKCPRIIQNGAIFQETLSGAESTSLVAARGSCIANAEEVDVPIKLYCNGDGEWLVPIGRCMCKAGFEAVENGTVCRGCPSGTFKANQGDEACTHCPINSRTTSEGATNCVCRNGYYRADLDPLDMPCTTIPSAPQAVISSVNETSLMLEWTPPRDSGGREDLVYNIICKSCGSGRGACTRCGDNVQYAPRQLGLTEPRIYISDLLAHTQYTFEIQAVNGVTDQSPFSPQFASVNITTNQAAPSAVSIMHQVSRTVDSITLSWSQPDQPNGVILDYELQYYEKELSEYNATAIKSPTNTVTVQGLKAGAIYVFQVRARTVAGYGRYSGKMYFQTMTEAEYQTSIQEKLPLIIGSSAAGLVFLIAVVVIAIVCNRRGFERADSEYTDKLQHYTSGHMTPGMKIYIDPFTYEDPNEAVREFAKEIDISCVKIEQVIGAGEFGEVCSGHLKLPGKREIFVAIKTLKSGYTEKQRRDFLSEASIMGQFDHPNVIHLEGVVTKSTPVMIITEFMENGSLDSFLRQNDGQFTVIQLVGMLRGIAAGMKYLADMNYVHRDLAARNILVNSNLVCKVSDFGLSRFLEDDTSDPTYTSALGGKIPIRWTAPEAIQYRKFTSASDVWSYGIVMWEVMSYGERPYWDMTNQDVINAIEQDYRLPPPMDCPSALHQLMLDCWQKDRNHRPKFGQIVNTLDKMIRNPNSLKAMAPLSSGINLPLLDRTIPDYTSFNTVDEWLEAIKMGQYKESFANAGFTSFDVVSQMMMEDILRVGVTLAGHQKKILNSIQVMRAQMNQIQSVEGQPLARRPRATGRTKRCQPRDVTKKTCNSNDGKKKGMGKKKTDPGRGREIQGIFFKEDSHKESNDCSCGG

Sequence of Tyrosine-protein kinase ABL1 (Homo sapiens), P00519 [F317I] (P00519 whole entry F317I, the tested form may be a part): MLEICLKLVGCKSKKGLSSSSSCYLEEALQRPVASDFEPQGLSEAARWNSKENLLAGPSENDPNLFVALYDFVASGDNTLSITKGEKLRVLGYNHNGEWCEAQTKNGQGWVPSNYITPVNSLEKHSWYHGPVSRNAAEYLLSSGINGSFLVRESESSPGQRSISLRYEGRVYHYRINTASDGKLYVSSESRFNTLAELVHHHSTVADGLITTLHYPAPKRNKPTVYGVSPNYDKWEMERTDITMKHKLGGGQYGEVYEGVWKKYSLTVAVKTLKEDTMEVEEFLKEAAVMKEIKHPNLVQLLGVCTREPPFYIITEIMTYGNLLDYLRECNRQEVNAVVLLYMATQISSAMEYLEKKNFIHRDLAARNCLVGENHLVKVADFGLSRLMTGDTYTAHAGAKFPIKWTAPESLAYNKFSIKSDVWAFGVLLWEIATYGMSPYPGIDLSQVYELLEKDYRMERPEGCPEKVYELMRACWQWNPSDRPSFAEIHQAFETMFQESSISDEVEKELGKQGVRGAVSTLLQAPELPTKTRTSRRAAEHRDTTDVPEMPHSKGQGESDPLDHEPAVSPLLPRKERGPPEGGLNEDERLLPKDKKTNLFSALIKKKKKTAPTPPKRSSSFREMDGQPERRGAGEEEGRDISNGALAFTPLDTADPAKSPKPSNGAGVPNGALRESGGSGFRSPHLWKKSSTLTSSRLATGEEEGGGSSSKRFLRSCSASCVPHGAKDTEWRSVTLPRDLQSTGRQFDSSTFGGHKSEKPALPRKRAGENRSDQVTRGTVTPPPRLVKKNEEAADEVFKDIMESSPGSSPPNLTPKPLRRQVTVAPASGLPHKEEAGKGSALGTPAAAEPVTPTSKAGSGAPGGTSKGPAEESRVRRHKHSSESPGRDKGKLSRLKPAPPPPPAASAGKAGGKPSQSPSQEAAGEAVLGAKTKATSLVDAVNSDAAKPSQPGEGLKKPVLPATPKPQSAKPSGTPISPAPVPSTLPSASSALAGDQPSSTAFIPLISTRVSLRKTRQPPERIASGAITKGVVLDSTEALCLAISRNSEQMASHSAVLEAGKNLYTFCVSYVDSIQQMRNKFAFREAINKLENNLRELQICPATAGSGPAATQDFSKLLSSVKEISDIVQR
Sequence of Receptor-interacting serine/threonine-protein kinase 2 (Homo sapiens) (O43353 whole entry, the tested form may be a part): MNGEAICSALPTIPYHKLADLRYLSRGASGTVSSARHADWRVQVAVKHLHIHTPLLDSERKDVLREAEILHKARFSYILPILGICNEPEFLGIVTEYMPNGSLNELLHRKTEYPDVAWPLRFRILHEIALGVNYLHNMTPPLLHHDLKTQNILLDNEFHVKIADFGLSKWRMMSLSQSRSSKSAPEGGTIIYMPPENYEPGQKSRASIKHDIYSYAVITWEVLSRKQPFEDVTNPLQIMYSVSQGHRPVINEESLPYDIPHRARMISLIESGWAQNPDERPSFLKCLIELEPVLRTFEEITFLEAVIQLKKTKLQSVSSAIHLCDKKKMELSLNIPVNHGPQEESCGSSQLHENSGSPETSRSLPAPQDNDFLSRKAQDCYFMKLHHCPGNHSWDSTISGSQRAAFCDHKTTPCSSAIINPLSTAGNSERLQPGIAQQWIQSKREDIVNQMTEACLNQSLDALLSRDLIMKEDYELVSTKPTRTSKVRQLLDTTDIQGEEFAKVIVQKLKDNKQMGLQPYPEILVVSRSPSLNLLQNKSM
Sequence of Mitogen-activated protein kinase 11 (Homo sapiens) (Q15759 whole entry, the tested form may be a part): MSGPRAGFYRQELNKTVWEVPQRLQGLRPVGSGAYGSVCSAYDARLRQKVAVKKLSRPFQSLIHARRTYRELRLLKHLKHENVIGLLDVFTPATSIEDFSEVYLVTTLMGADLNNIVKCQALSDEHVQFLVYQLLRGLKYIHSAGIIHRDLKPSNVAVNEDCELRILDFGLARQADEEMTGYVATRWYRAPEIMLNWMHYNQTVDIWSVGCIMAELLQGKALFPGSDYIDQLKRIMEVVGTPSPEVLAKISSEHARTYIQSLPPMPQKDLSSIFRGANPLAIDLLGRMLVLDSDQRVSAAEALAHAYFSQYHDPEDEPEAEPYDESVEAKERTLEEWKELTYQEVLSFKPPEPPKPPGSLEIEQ
Sequence of Mitogen-activated protein kinase 9 (Homo sapiens) (P45984 whole entry, looked up, the tested form may be a part): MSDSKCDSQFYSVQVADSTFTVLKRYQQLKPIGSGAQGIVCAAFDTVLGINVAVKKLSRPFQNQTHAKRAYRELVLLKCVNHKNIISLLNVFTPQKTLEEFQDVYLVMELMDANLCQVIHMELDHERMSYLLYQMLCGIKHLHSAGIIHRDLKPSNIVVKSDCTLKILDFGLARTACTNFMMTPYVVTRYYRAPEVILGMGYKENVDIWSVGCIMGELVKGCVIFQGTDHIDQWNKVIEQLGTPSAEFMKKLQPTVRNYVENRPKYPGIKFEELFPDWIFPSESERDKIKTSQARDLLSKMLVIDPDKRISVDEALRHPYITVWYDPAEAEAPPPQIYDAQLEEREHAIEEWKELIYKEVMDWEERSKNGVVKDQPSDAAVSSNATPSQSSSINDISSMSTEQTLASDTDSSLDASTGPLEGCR
Sequence of Serine/threonine-protein kinase 16 (Homo sapiens) (O75716 whole entry, the tested form may be a part): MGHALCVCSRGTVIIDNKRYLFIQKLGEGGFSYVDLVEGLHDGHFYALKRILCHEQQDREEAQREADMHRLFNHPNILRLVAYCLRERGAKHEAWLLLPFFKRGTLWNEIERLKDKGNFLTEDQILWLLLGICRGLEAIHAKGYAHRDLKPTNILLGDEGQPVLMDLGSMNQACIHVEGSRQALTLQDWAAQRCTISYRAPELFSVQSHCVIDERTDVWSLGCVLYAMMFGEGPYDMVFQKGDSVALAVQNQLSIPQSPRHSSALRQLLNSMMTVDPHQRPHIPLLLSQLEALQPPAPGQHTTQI
Sequence of Serine/threonine-protein kinase 38 (Homo sapiens) (Q15208 2-465 limits assumed): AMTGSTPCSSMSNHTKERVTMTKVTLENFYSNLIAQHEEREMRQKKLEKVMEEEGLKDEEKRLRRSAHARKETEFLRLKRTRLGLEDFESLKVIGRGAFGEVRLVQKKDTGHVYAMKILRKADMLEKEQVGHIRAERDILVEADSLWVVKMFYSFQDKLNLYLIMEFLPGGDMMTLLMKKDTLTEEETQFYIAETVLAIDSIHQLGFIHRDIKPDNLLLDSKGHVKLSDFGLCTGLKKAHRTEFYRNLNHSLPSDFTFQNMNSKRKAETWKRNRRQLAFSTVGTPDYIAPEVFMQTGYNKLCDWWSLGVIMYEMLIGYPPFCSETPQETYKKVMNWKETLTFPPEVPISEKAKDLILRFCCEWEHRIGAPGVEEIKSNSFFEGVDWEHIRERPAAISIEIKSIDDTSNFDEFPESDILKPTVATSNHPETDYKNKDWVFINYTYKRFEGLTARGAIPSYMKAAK
Sequence of Serine/threonine-protein kinase DCLK3 (Homo sapiens) (Q9C098 whole entry, the tested form may be a part, canonical isoform): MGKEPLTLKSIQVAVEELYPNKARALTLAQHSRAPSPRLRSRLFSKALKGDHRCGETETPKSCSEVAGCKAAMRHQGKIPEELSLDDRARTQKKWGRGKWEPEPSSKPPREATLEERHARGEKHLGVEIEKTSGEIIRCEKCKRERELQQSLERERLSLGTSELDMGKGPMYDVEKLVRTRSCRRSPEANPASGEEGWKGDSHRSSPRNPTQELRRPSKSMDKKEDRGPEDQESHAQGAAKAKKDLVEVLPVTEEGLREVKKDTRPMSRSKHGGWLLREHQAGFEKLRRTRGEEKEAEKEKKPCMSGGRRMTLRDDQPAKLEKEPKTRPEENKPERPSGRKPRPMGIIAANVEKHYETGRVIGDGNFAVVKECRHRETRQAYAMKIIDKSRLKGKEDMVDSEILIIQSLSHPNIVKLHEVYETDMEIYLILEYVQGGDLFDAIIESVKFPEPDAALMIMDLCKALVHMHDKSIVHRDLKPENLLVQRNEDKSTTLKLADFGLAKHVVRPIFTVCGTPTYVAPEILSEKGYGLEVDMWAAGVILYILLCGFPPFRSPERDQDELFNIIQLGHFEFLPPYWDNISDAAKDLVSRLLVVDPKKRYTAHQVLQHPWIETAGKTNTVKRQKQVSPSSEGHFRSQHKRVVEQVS

With `C=CC(=O)Nc1cc(Nc2cc(-c3cccc(NC(=O)c4ccc(C(C)(C)C)cc4)c3C)cn(C)c2=O)ccc1C(=O)N1CCOCC1` the Activity [1] was 94%, the Activity [2] was 98% and the Activity [3] was 80%. It also gave an Activity [4] of 62%, an Activity [5] of 100% and an Activity [6] of 100%. The Activity [7] was 98%, the Activity [8] was 93% and the Activity [9] was 98%. It also gave an MRT last [10] of 1.36 h, an Activity [11] of 96% and an Activity [12] of 97%. For the same compound, the Activity [13] was 100%, the Activity [14] was 92% and the Activity [15] was 97%. For the same compound, the Activity [16] was 92%, the Activity [17] was 93% and the Activity [18] was 100%. The Activity [19] was 100%, the Activity [20] was 99% and the Activity [21] was 97%. For the same compound, the Activity [22] was 93%, the Activity [23] was 100% and the Activity [24] was 94%. It also gave an Activity [25] of 100%.
